The structures appear in SMILES notation. “Also recorded” adds a separate entry of the source.

For one assay, the system named is TMEM function (CTCs). Briefly: Clinical trial NCT02824575: oral rebastinib to inhibit TMEM function (CTCs) in breast cancer patients. Format: in vivo, human.
The test system of assay [1] is TMEM. Briefly: TMEM-MRI test (Uth) in PyMT mouse model, control vs rebastinib. The note with it: mice, FIGS. 2-3. It is filed as in vivo. An excerpt:
FIGS. 3A-3E. Evaluation of TMEM-MRI assay sensitivity and its values as a companion diagnostic is illustrated by using TMEM-MRI to detect the effect of the commercially available TMEM inhibitor Rebastinib in PyMT mouse model. FIG. 3A depicts a schematic illustration and cohort composition of the MMTV-PyMT Control vs Rebastinib (Ctrl-Reb) transplantation model. FIG. 3B is a chart depicting upper threshold ratio (Uth) of Ctrl-and rebastinib (Reb)-treated tumors. FIG. 3C depicts extravascular dextran assay, showing TMEM association with leaky (lower row), but no association of TMEM with non-leaky (upper row) blood vessel. FIG. 3D is a chart depicting the comparison between extravascular dextran leakiness between Ctrl and Reb-treated tumors. FIG. 3E is a chart depicting circulating tumor cells in mice treated with rebastinib or vehicle control. […]
A new assay for TMEM activity has been developed and validated. […] Using intravenously injected Gd-DTPA, in a dynamic and quantitative assessment allowing assessment of the change in tissue permeability induced by TMEM, with adequate temporal and spatial resolution, the permeability change associated with the TMEM occurrence can be measured with high spatial resolution. […] TMEM facilitated increase in tissue diffusion, measured using the apparent diffusion constant or using Diffusion Tensor Imaging (DTI) may also be developed to detect TMEM. […]

The subject of assay [2] is TMEM. The note with it: mice with breast cancer, oral administration; cited from earlier work.
Another assay deals with circulating tumor cells. The note with it: mice with breast cancer, chemotherapy-induced, oral administration; cited from earlier work.
Another assay relates to tumor cells. Particulars: mouse models of breast cancer; cited from earlier work.

As for `CNC(=O)c1cc(Oc2ccc(NC(=O)Nc3cc(C(C)(C)C)nn3-c3ccc4ncccc4c3)c(F)c2)ccn1` [rebastinib, 4-[4-[(5-tert-butyl-2-quinolin-6-ylpyrazol-3-yl)carbamoylamino]-3-fluorophenoxy]-N-methylpyridine-2-carboxamide], the “tumor cell dissemination (CTCs) in patients” value with TMEM function (CTCs) is given as “prevents dissemination of tumor cells; also recorded: most patients achieved complete inhibition of tumor cell dissemination”. In addition, the “TMEM activity detected by TMEM-MRI test” value in the assay with TMEM [1] is reported as “inhibition of TMEM activity”. Moreover, in the assay with TMEM [2], the “chemotherapy-induced TMEM activity (multiphoton imaging of the burst)” value is reported as “inhibited”. For the same molecule, the “cancer cell dissemination (circulating tumor cells in the blood, CTCs)” value in the assay on circulating tumor cells is on record as “inhibited”. Further, the “dissemination of tumor cells” value in the assay on tumor cells is “prevents dissemination of tumor cells”.

Source of the values: patent US20250057989A1, “TMEM-MCD IN THE MINIMALLY INVASIVE ASSESSMENT OF THE ACTIVITY STATUS OF TMEM IN ITS DISSEMINATION OF TUMOR CELLS” (Albert Einstein College of Medicine, priority 2018, published 2025).
